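Where inhibition never reached the appropriate level, the endpoint shown equals the highest concentration tested. Otherwise, values were interpolated linearly from a five-concentration, 48-hour dose response in 96-well plates. GI50: concentration for 50% inhibition of growth. The concentration for full growth arrest is given as TGI.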
Columns and labels:
Assay in all cases: DTP human tumour cell line panel, 48 h
ACHN renal = test system: ACHN renal
NCI-H23 lung = test system: NCI-H23 lung
A549 NSCLC = test system: A549 NSCLC
HOP-62 NSCLC = test system: HOP-62 NSCLC
DU-145 prostate = test system: DU-145 prostate
UACC-257 melanoma = test system: UACC-257 melanoma
HCT-15 colon = test system: HCT-15 colon
SN12C renal = test system: SN12C renal
OVCAR-4 ovarian = test system: OVCAR-4 ovarian
SK-MEL-2 melanoma = test system: SK-MEL-2 melanoma
HL-60(TB) leukemia = test system: HL-60(TB) leukemia
UACC-62 melanoma = test system: UACC-62 melanoma
RXF 393 renal = test system: RXF 393 renal
TK-10 renal = test system: TK-10 renal
NCI-H522 lung = test system: NCI-H522 lung
MDA-MB-435 = test system: MDA-MB-435
MDA-MB-468 breast = test system: MDA-MB-468 breast
CAKI-1 renal = test system: CAKI-1 renal
MALME-3M melanoma = test system: MALME-3M melanoma
HCT-116 colon = test system: HCT-116 colon
MDA-MB-231 breast = test system: MDA-MB-231 breast
OVCAR-3 ovarian = test system: OVCAR-3 ovarian
EKVX NSCLC = test system: EKVX NSCLC
SF-268 CNS = test system: SF-268 CNS
K-562 leukemia = test system: K-562 leukemia
T-47D breast = test system: T-47D breast
HS 578T breast = test system: HS 578T breast
U251 CNS = test system: U251 CNS
NCI-H226 lung = test system: NCI-H226 lung
SF-539 CNS = test system: SF-539 CNS
NCI-H460 lung = test system: NCI-H460 lung
SK-MEL-28 melanoma = test system: SK-MEL-28 melanoma
A498 renal = test system: A498 renal
SNB-19 CNS = test system: SNB-19 CNS
SF-295 CNS = test system: SF-295 CNS
SK-MEL-5 melanoma = test system: SK-MEL-5 melanoma
HOP-92 NSCLC = test system: HOP-92 NSCLC
NCI/ADR-RES ovarian = test system: NCI/ADR-RES ovarian
OVCAR-5 ovarian = test system: OVCAR-5 ovarian
HT29 colon = test system: HT29 colon
IGROV1 ovarian = test system: IGROV1 ovarian
LOX IMVI melanoma = test system: LOX IMVI melanoma
KM12 colon = test system: KM12 colon
M14 melanoma = test system: M14 melanoma
OVCAR-8 ovarian = test system: OVCAR-8 ovarian
SW-620 colon = test system: SW-620 colon
MOLT-4 leukemia = test system: MOLT-4 leukemia
HCC-2998 colon = test system: HCC-2998 colon
MCF7 breast = test system: MCF7 breast
UO-31 renal = test system: UO-31 renal
PC-3 prostate = test system: PC-3 prostate
SK-OV-3 ovarian = test system: SK-OV-3 ovarian
RPMI-8226 leukemia = test system: RPMI-8226 leukemia
BT-549 breast = test system: BT-549 breast
786-0 renal = test system: 786-0 renal
SR leukemia = test system: SR leukemia
COLO 205 colon = test system: COLO 205 colon
CCRF-CEM leukemia = test system: CCRF-CEM leukemia

COc1ccc(C(=O)/C=C/c2cccc(Cl)c2)cc1S(N)(=O)=O
GI50 (ACHN renal): 1.75 µM
TGI (ACHN renal): 3.23 µM
GI50 (NCI-H23 lung): 1.78 µM
TGI (NCI-H23 lung): 3.5 µM
GI50 (A549 NSCLC): 2.5 µM
TGI (A549 NSCLC): 10.2 µM
GI50 (HOP-62 NSCLC): 2.2 µM
TGI (HOP-62 NSCLC): 6.43 µM
GI50 (DU-145 prostate): 3.52 µM
TGI (DU-145 prostate): 12.2 µM
GI50 (UACC-257 melanoma): 5.53 µM
TGI (UACC-257 melanoma): 18.9 µM
GI50 (HCT-15 colon): 1.14 µM
TGI (HCT-15 colon): 2.59 µM
GI50 (SN12C renal): 1.56 µM
TGI (SN12C renal): 3.64 µM
GI50 (OVCAR-4 ovarian): 3.58 µM
TGI (OVCAR-4 ovarian): 14.3 µM
GI50 (SK-MEL-2 melanoma): 12.9 µM
TGI (SK-MEL-2 melanoma): 26.2 µM
GI50 (HL-60(TB) leukemia): 1.9 µM
TGI (HL-60(TB) leukemia): 5.72 µM
GI50 (UACC-62 melanoma): 1.98 µM
TGI (UACC-62 melanoma): 5.51 µM
GI50 (RXF 393 renal): 1.55 µM
TGI (RXF 393 renal): 3.08 µM
GI50 (TK-10 renal): 2.49 µM
TGI (TK-10 renal): 10.5 µM
GI50 (NCI-H522 lung): 1.63 µM
TGI (NCI-H522 lung): 3.22 µM
GI50 (MDA-MB-435): 3.2 µM
TGI (MDA-MB-435): 12.1 µM
GI50 (MDA-MB-468 breast): 1.41 µM
TGI (MDA-MB-468 breast): 2.93 µM
GI50 (CAKI-1 renal): 2.4 µM
TGI (CAKI-1 renal): 9.07 µM
GI50 (MALME-3M melanoma): 3.56 µM
TGI (MALME-3M melanoma): 15.1 µM
GI50 (HCT-116 colon): 1.21 µM
TGI (HCT-116 colon): 2.52 µM
GI50 (MDA-MB-231 breast): 2.26 µM
TGI (MDA-MB-231 breast): 5.9 µM
GI50 (OVCAR-3 ovarian): 1.55 µM
TGI (OVCAR-3 ovarian): 3.39 µM
GI50 (EKVX NSCLC): 4.16 µM
TGI (EKVX NSCLC): 16.7 µM
GI50 (SF-268 CNS): 3.27 µM
TGI (SF-268 CNS): 13 µM
GI50 (K-562 leukemia): 2.13 µM
TGI (K-562 leukemia): > 100 µM
GI50 (T-47D breast): 2.14 µM
TGI (T-47D breast): 6.68 µM
GI50 (HS 578T breast): 10.7 µM
TGI (HS 578T breast): 50.9 µM
GI50 (U251 CNS): 1.36 µM
TGI (U251 CNS): 2.69 µM
GI50 (NCI-H226 lung): 2.83 µM
TGI (NCI-H226 lung): 11.9 µM
GI50 (SF-539 CNS): 1.75 µM
TGI (SF-539 CNS): 3.78 µM
GI50 (NCI-H460 lung): 3.34 µM
TGI (NCI-H460 lung): 11.2 µM
GI50 (SK-MEL-28 melanoma): 2.78 µM
TGI (SK-MEL-28 melanoma): 9.4 µM
GI50 (A498 renal): 16.3 µM
TGI (A498 renal): 30.5 µM
GI50 (SNB-19 CNS): 3.13 µM
TGI (SNB-19 CNS): 12.4 µM
GI50 (SF-295 CNS): 2.24 µM
TGI (SF-295 CNS): 7.94 µM
GI50 (SK-MEL-5 melanoma): 3.18 µM
TGI (SK-MEL-5 melanoma): 12.6 µM
GI50 (HOP-92 NSCLC): 2.28 µM
TGI (HOP-92 NSCLC): 18.6 µM
GI50 (NCI/ADR-RES ovarian): 2.29 µM
TGI (NCI/ADR-RES ovarian): 6.48 µM
GI50 (OVCAR-5 ovarian): 1.87 µM
TGI (OVCAR-5 ovarian): 4.76 µM
GI50 (HT29 colon): 1.7 µM
TGI (HT29 colon): 3.4 µM
GI50 (IGROV1 ovarian): 2.48 µM
TGI (IGROV1 ovarian): 9.06 µM
GI50 (LOX IMVI melanoma): 1.3 µM
TGI (LOX IMVI melanoma): 2.57 µM
GI50 (KM12 colon): 1.61 µM
TGI (KM12 colon): 3.75 µM
GI50 (M14 melanoma): 2.13 µM
TGI (M14 melanoma): 6.93 µM
GI50 (OVCAR-8 ovarian): 2.81 µM
TGI (OVCAR-8 ovarian): 11.7 µM
GI50 (SW-620 colon): 1.68 µM
TGI (SW-620 colon): 3.53 µM
GI50 (MOLT-4 leukemia): 2.38 µM
TGI (MOLT-4 leukemia): 6.15 µM
GI50 (HCC-2998 colon): 1.6 µM
TGI (HCC-2998 colon): 3.06 µM
GI50 (MCF7 breast): 1.97 µM
TGI (MCF7 breast): 6.99 µM
GI50 (UO-31 renal): 1.29 µM
TGI (UO-31 renal): 2.73 µM
GI50 (PC-3 prostate): 2.23 µM
TGI (PC-3 prostate): 6.18 µM
GI50 (SK-OV-3 ovarian): 6.24 µM
TGI (SK-OV-3 ovarian): 19.1 µM
GI50 (RPMI-8226 leukemia): 2.28 µM
TGI (RPMI-8226 leukemia): 6.67 µM
GI50 (BT-549 breast): 1.65 µM
TGI (BT-549 breast): 4.18 µM
GI50 (786-0 renal): 1.57 µM
TGI (786-0 renal): 3.49 µM
GI50 (SR leukemia): 0.848 µM
TGI (SR leukemia): 4.9 µM
GI50 (COLO 205 colon): 1.81 µM
TGI (COLO 205 colon): 3.41 µM
GI50 (CCRF-CEM leukemia): 3.11 µM
TGI (CCRF-CEM leukemia): 8.69 µM
